Experimental data from patent US20030224937A1, “Selective herbicidal composition” (priority 1994, published 2003).

Test system: Maize
Assay: Preemergence phytotoxic action of the herbicide of formula I and of mixtures of herbicide and safener of formula II on maize
Format: in vivo
Conditions: no safener, 22 days
From the text: Preemergence Phytoxic Action of the Herbicide of Formula I and of the Mixtures of Herbicide and Safener of Formula II on Maize
Maize is sown in standard soil in plastic pots. Immediately after sowing, the pots are sprayed with an aqueous suspension of the test substances (500 l of water/ha) prepared from one of the above formulations 1 to 8. The concentration of herbicide of formula I is 4000, 3000 and 2000 g/ha. The safener No. 1.006 is applied in a ratio to the herbicide of 1:18, 1:24 and 1:30. The test plants are afterwards cultivated in a greenhouse under optimum conditions. The phytotoxic action of the herbicide on the maize (percentage phytotoxicity) is evaluated after a test duration of 22 days.

With `CCc1cccc(C)c1N(C(=O)CCl)[C@@H](C)COC` [formula I, aRS,1′S(−)N-(1′-methyl-2′-methoxyethyl)-N-chloracetyl-2-ethyl-6-methylaniline] the “% Phytotoxicity” value (herbicide of formula I 4000 g/ha, greenhouse) was 65%, the “% Phytotoxicity” value (series b), herbicide of formula I 2000 g/ha (so in the source)) was 55% and the “% Phytotoxicity” value (series c), herbicide of formula I 2000 g/ha) was 25%.
